Calls of active or inactive are those of the source. No cut-off for these calls is given here.
Legend:
RAW264.7 [1] = test: Antiarthritic activity against LPS-induced mouse RAW264.7 cells assessed as downregulation of TLR4 expression at 1 uM preincubated with compound for 24 hrs followed by LPS-induction and measured after 24 hrs by immunofluorescence analysis; format: functional, cell-based; conditions: time 48.0 hrs
RAW264.7 [2] = test: Antiarthritic activity against LPS-induced mouse RAW264.7 cells assessed as reduction in IL-6 level at 1 uM incubated for 24 hrs (Rvb 231.1 +/- 24.2 pg/L); format: functional
RAW264.7 [3] = test: Antiarthritic activity against LPS-induced mouse RAW264.7 cells assessed as downregulation of TNF-alpha expression at 1 uM preincubated with compound for 24 hrs followed by LPS-induction and measured after 24 hrs by immunofluorescence analysis; format: functional, cell-based; conditions: time 48.0 hrs
Toll-like receptor 4 [4] = target: T1, Toll-like receptor 4 (Homo sapiens, UniProt O00206); test: Potency index, ratio of methotrexate IC50 to test compound IC50 for inhibition of TLR4 (unknown origin) using TMB as substrate incubated for 90 mins
RAW264.7 [5] = test: Antiarthritic activity against LPS-induced mouse RAW264.7 cells assessed as downregulation of NF-kappaB expression at 1 uM preincubated with compound for 24 hrs followed by LPS-induction and measured after 24 hrs by immunofluorescence analysis; format: functional, cell-based; conditions: time 48.0 hrs
RAW264.7 [6] = test: Antiproliferative activity against LPS-induced- mouse RAW264.7 cells assessed as decrease in number of cells at 1 uM pretreated with compound for 24 hrs followed by LPS induction and measured after 24 hrs; format: functional, cell-based; conditions: time 48.0 hrs
RAW264.7 [7] = test: Antiarthritic activity against LPS-induced mouse RAW264.7 cells assessed as reduction in IL-6 level at 1 uM pretreated with compound for 24 hrs followed by LPS induction and measured after 24 hrs; format: functional, cell-based; conditions: time 48.0 hrs
Mus musculus [8] = test: Antiarthritic activity against collagen-induced rheumatoid arthritis mouse model assessed as reduction in IL-6 level at 100 mg/kg administered for 15 days by ELISA analysis; format: functional, organism-based; conditions: time 15.0 day
RAW264.7 [9] = test: Antiproliferative activity against LPS-induced- mouse RAW264.7 cells assessed as cell survival at 1 uM pretreated with compound for 24 hrs followed by LPS induction and measured after 24 hrs; format: functional, cell-based; conditions: time 48.0 hrs
RAW264.7 [10] = test: Antiarthritic activity against LPS-induced mouse RAW264.7 cells assessed as downregulation of STAT3 mRNA expression at 1 uM preincubated with compound for 24 hrs followed by LPS-induction and measured after 24 hrs by RT-PCR analysis; format: functional, cell-based; conditions: time 48.0 hrs
Mus musculus [11] = test: Antiarthritic activity against collagen-induced rheumatoid arthritis mouse model assessed as reduction in TNF-alpha level at 100 mg/kg administered for 15 days by ELISA analysis; format: functional, organism-based; conditions: time 15.0 day
RAW264.7 [12] = test: Antiarthritic activity against LPS-induced mouse RAW264.7 cells assessed as downregulation of TNF-alpha expression at 1 uM preincubated with compound for 24 hrs followed by LPS-induction and measured after 24 hrs by Western blot analysis; format: functional, cell-based; conditions: time 48.0 hrs
Mus musculus [13] = test: Antiarthritic activity against collagen-induced rheumatoid arthritis mouse model assessed as reduction in paw swelling at 100 mg/kg administered for 15 days and measured on day 28; format: functional, organism-based; conditions: time 28.0 day
[14] = Antiproliferative activity against rat Synovial cell assessed as inhibition of cell growth incubated for 48 hrs by CCK-8 assay; format: functional, cell-based
RAW264.7 [15] = test: Antiarthritic activity against LPS-induced mouse RAW264.7 cells assessed as downregulation of TNF-alpha mRNA expression at 1 uM preincubated with compound for 24 hrs followed by LPS-induction and measured after 24 hrs by RT-PCR analysis; format: functional, cell-based; conditions: time 48.0 hrs
RAW264.7 [16] = test: Antiarthritic activity against LPS-induced mouse RAW264.7 cells assessed as reduction in IL-1beta level at 1 uM incubated for 24 hrs (Rvb 665.1 +/- 82.1 pg/L); format: functional
RAW264.7 [17] = test: Antiarthritic activity against LPS-induced mouse RAW264.7 cells assessed as reduction in TNF-alpha level at 1 uM incubated for 24 hrs (Rvb 653.3 +/- 70.1 pg/L); format: functional
RAW264.7 [18] = test: Antiarthritic activity against LPS-induced mouse RAW264.7 cells assessed as downregulation of NF-kappaB mRNA expression at 1 uM preincubated with compound for 24 hrs followed by LPS-induction and measured after 24 hrs by RT-PCR analysis; format: functional, cell-based; conditions: time 48.0 hrs
RAW264.7 [19] = test: Antiproliferative activity against LPS-induced- mouse RAW264.7 cells assessed as inhibition of cell growth incubated for 24 hrs by CCK-8 assay; format: functional, cell-based; conditions: RAW264.7, 24 h
RAW264.7 [20] = test: Antiarthritic activity against LPS-induced mouse RAW264.7 cells assessed as downregulation of TLR4 mRNA expression at 1 uM preincubated with compound for 24 hrs followed by LPS-induction and measured after 24 hrs by RT-PCR analysis; format: functional, cell-based; conditions: time 48.0 hrs
RAW264.7 [21] = test: Antiarthritic activity against LPS-induced mouse RAW264.7 cells assessed as reduction in TNF-alpha level at 1 uM pretreated with compound for 24 hrs followed by LPS induction and measured after 24 hrs; format: functional, cell-based; conditions: time 48.0 hrs
RAW264.7 [22] = test: Antiarthritic activity against LPS-induced mouse RAW264.7 cells assessed as downregulation of JAK2 expression at 1 uM preincubated with compound for 24 hrs followed by LPS-induction and measured after 24 hrs by Western blot analysis; format: functional, cell-based; conditions: time 48.0 hrs
Mus musculus [23] = test: Antiarthritic activity against collagen-induced rheumatoid arthritis mouse model assessed as reduction in IL-1beta level at 100 mg/kg administered for 15 days by ELISA analysis; format: functional, organism-based; conditions: time 15.0 day
RAW264.7 [24] = test: Antiarthritic activity against LPS-induced mouse RAW264.7 cells assessed as downregulation of TLR4 expression at 1 uM preincubated with compound for 24 hrs followed by LPS-induction and measured after 24 hrs by Western blot analysis; format: functional, cell-based; conditions: time 48.0 hrs
RAW264.7 [25] = test: Antiarthritic activity against LPS-induced mouse RAW264.7 cells assessed as downregulation of STAT3 expression at 1 uM preincubated with compound for 24 hrs followed by LPS-induction and measured after 24 hrs by Western blot analysis; format: functional, cell-based; conditions: time 48.0 hrs
RAW264.7 [26] = test: Antiarthritic activity against LPS-induced mouse RAW264.7 cells assessed as downregulation of NF-kappaB expression at 1 uM preincubated with compound for 24 hrs followed by LPS-induction and measured after 24 hrs by Western blot analysis; format: functional, cell-based; conditions: time 48.0 hrs
RAW264.7 [27] = test: Antiarthritic activity against LPS-induced mouse RAW264.7 cells assessed as downregulation of STAT3 expression at 1 uM preincubated with compound for 24 hrs followed by LPS-induction and measured after 24 hrs by immunofluorescence analysis; format: functional, cell-based; conditions: time 48.0 hrs
RAW264.7 [28] = test: Antiarthritic activity against LPS-induced mouse RAW264.7 cells assessed as downregulation of JAK2 expression at 1 uM preincubated with compound for 24 hrs followed by LPS-induction and measured after 24 hrs by immunofluorescence analysis; format: functional, cell-based; conditions: time 48.0 hrs
RAW264.7 [29] = test: Antiarthritic activity against LPS-induced mouse RAW264.7 cells assessed as reduction in IL-1beta level at 1 uM pretreated with compound for 24 hrs followed by LPS induction and measured after 24 hrs; format: functional, cell-based; conditions: time 48.0 hrs
RAW264.7 [30] = test: Antiarthritic activity against LPS-induced mouse RAW264.7 cells assessed as downregulation of JAK2 mRNA expression at 1 uM preincubated with compound for 24 hrs followed by LPS-induction and measured after 24 hrs by RT-PCR analysis; format: functional, cell-based; conditions: time 48.0 hrs
Toll-like receptor 4 [31] = target: T1, Toll-like receptor 4; test: Inhibition of TLR4 (unknown origin) using TMB as substrate incubated for 90 mins
Mus musculus [32] = test: Antiarthritic activity against collagen-induced rheumatoid arthritis mouse model assessed as reduction in clinical score at 100 mg/kg administered for 15 days; format: functional, organism-based; conditions: time 15.0 day

T1 sequence (O00206 whole entry): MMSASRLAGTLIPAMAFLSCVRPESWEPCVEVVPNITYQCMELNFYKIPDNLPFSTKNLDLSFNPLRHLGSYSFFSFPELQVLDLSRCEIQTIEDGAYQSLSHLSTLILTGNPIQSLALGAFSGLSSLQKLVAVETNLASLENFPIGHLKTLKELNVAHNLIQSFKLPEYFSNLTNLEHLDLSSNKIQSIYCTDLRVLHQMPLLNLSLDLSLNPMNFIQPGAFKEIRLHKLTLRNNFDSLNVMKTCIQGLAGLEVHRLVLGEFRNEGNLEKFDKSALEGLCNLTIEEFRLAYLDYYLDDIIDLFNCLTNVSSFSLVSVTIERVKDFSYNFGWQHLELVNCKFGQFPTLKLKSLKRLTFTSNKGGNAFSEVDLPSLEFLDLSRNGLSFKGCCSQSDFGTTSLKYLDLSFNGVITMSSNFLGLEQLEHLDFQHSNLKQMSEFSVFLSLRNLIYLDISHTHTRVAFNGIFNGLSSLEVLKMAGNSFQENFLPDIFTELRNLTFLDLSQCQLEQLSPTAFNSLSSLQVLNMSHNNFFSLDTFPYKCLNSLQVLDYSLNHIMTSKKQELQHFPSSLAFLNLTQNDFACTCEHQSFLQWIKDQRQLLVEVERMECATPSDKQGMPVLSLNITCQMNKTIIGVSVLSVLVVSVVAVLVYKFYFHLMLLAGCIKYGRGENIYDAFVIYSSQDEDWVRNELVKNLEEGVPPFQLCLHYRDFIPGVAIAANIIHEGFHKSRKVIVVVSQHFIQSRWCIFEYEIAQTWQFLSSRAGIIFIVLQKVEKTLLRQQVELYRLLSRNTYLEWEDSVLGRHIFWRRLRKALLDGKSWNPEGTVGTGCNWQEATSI

CC(=O)CC(=O)C1CC(O)CCC1=O (configuration not stated)
Activity (RAW264.7 [1]): Active
Activity (RAW264.7 [2]): 90.2 pg/L
Activity (RAW264.7 [3]): Active
Ratio IC50 (Toll-like receptor 4 [4]): 2.4
Activity (RAW264.7 [5]): Active
Activity (RAW264.7 [6]): Active
Activity (RAW264.7 [7]): Active
Activity (Mus musculus [8]): Active
Activity (RAW264.7 [9]): Active
Activity (RAW264.7 [10]): Active
Activity (Mus musculus [11]): Active
Activity (RAW264.7 [12]): Active
Activity (Mus musculus [13]): Active
IC50 [14]: 1210 nM
Activity (RAW264.7 [15]): Active
Activity (RAW264.7 [16]): 258.3 pg/L
Activity (RAW264.7 [17]): 151.5 pg/L
Activity (RAW264.7 [18]): Active
IC50 (RAW264.7 [19]): 730 nM
Activity (RAW264.7 [20]): Active
Activity (RAW264.7 [21]): Active
Activity (RAW264.7 [22]): Active
Activity (Mus musculus [23]): Active
Activity (RAW264.7 [24]): Active
Activity (RAW264.7 [25]): Active
Activity (RAW264.7 [26]): Active
Activity (RAW264.7 [27]): Active
Activity (RAW264.7 [28]): Active
Activity (RAW264.7 [29]): Active
Activity (RAW264.7 [30]): Active
IC50 (Toll-like receptor 4 [31]): 430 nM
Activity (Mus musculus [32]): Active
